The values that follow come from patent publication US20240287042A1, “NOVEL COMPOUND HAVING INHIBITORY ACTIVITY AGAINST PENDRIN, AND PHARMACEUTICAL USES THEREOF” (UIF (University Industry Foundation), Yonsei University, priority 2021, published 2024).

Usually inhibition stands for the percentage by which the read-out fell short of the control.

Assay [1] concerns the target T1, human WT CFTR (Homo sapiens, UniProt P13569).
T1 construct: expressed in transfected cells
Nature of the assay: CFTR I− transport activity, YFP fluorescence, forskolin-activated. It is filed as cell-based. As to conditions: for Effect on CFTR activity: 100 μM. The method, then: (§1) Chinese hamster ovary (CHO)-K1 cells or LN-215 cells were cultured in DMEM medium containing 10% fetal bovine serum (FBS), 100 units/ml of penicillin and 100 μg/ml streptomycin. CHO-K1 cells or LN-215 cells were stably transfected with pcDNA3.1 encoding the halide sensor YFP-H148Q/I152L/F46L and human wild-type (WT)-SLC26A9. Fisher rat thyroid (FRT) cells stably transfected with YFP-H148Q/I152L/F46L and human wild type (WT)-CFTR or human wild type (WT)-ANO1 were cultured in DMEM/F-12 medium containing 10% fetal bovine serum (FBS), 100 units/ml of penicillin, and 100 μg/ml of streptomycin.
LN-215 cells expressing human WT SLC26A9 and YFP-F46L/H148Q/I152L, and FRT cells expressing human WT CFTR or ANO1 and YFP-F46L/H148Q/I152L were plated in 96-well microplates at a density of 2×10^4 cells per well, and cultured for 48 hours. […] After culturing at 37° C. for 10 minutes, the 96-well plate was located on the FLUOstar Omega Microplate Reader (BMG Labtech, Ortenberg, Germany) for a fluorescence assay. For assay of the activity of […], fluorescence was recorded continuously (400 ms per point) for 1 second (baseline), whereby each well was assayed individually for SLC26A9-mediated I-influx. Then, 50 μL of NaI-substituted HEPES buffered solution (replacing NaCl with NaI) was added using a liquid injector at 1 second, and YFP fluorescence was recorded for 6 seconds. For assay of the activity of CFTR, fluorescence was recorded continuously (400 ms per point) for 2 seconds (baseline), whereby each well was assayed individually for CFTR-mediated I^− influx. Then, 50 μL of NaI-substituted HEPES buffered solution (replacing NaCl with NaI) was added using a liquid injector at 2 second, and YFP fluorescence was recorded for 8 seconds. For assay of the activity of ANO1, fluorescence was recorded continuously (400 ms per point) for 1 second (baseline), whereby each well was assayed individually for ANO1-mediated I^− influx. […] The initial iodide influx rate was determined from the initial slope of fluorescence by nonlinear regression, after the injection of iodide. […]

The target of assay [2] is T2, human WT ANO1 (Homo sapiens, UniProt Q5XXA6).
T2 construct: expressed in transfected cells
T2 sequence (Q5XXA6 1-986): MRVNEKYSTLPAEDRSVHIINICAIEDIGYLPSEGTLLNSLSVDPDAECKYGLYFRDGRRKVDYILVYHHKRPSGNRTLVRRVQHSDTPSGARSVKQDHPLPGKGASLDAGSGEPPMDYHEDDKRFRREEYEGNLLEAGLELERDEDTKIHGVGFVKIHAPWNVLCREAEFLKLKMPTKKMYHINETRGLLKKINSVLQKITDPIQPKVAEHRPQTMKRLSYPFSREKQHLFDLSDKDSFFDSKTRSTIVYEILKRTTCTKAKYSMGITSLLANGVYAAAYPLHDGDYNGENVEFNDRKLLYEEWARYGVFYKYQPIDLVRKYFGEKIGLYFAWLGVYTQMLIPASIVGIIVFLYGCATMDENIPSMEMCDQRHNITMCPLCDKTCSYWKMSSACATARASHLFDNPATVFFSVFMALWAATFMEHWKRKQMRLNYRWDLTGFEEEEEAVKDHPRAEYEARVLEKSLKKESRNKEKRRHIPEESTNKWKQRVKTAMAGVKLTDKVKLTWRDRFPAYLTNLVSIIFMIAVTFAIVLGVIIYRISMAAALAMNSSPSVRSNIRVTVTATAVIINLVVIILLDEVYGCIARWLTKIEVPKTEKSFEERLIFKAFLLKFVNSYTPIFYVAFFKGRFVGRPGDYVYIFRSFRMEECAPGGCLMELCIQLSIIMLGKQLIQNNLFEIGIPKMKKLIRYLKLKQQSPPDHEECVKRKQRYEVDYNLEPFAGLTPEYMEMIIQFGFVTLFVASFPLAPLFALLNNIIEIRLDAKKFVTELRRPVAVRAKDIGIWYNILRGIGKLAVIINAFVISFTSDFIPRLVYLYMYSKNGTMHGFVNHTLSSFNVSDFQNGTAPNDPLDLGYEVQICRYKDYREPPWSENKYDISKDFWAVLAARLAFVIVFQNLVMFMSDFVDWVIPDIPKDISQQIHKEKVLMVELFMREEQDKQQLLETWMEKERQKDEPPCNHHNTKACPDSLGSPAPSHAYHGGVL
Nature of the assay: ANO1 I− transport activity, YFP fluorescence in FRT cells, ATP-activated. It is filed as cell-based. The procedure: as §1
LN-215 cells expressing human WT SLC26A9 and YFP-F46L/H148Q/I152L, and FRT cells expressing human WT CFTR or ANO1 and YFP-F46L/H148Q/I152L were plated in 96-well microplates at a density of 2×10^4 cells per well, and cultured for 48 hours. […] After culturing at 37° C. for 10 minutes, the 96-well plate was located on the FLUOstar Omega Microplate Reader (BMG Labtech, Ortenberg, Germany) for a fluorescence assay. For assay of the activity of […], fluorescence was recorded continuously (400 ms per point) for 1 second (baseline), whereby each well was assayed individually for SLC26A9-mediated I-influx. Then, 50 μL of NaI-substituted HEPES buffered solution (replacing NaCl with NaI) was added using a liquid injector at 1 second, and YFP fluorescence was recorded for 6 seconds. […]

T1 sequence (P13569 whole entry): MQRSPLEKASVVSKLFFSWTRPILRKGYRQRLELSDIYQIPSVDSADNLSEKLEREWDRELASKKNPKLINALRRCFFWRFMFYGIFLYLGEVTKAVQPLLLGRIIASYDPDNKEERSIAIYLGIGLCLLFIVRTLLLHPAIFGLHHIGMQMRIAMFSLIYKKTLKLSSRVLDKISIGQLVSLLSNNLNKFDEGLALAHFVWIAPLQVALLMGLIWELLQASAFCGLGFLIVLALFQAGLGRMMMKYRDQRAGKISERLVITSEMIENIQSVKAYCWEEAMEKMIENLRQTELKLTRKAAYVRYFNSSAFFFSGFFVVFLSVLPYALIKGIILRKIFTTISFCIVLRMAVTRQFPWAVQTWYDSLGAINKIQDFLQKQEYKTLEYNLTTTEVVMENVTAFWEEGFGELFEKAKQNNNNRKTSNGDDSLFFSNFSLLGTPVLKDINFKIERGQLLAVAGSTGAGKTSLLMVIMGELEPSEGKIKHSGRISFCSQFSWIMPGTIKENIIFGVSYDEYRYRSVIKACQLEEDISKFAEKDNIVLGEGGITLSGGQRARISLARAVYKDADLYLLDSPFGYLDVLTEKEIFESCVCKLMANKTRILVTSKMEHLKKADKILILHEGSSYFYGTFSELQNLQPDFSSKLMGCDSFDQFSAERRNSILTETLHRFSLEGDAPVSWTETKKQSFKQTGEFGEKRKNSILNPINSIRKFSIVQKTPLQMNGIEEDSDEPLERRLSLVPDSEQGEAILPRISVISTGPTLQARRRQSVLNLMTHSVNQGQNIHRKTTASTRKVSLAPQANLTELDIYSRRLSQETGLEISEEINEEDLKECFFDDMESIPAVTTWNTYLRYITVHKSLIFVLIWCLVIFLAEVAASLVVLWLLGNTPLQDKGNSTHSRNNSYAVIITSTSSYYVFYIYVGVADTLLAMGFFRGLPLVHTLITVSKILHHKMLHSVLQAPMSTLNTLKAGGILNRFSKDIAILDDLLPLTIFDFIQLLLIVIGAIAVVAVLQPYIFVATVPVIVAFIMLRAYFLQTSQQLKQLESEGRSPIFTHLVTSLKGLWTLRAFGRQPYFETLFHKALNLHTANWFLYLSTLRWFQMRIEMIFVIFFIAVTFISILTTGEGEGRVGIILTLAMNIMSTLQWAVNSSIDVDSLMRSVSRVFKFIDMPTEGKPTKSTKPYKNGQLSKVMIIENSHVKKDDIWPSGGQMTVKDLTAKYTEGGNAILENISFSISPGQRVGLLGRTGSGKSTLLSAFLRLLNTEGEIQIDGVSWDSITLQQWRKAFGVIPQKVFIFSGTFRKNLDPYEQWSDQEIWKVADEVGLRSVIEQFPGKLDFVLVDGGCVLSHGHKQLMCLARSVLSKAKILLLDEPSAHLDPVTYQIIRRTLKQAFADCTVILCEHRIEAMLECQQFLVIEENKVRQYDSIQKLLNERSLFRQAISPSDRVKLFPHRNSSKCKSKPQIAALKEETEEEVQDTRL

Consider `Cc1ccc2[nH]c(C(=O)O)c(CC(=O)N3CCN(c4c(C)cccc4Cl)CC3)c2c1` [YPI-A4948, 3-(2-(4-(2-Chloro-6-methylphenyl)piperazin-1-yl)-2-oxoethyl)-5-methyl-1H-indole-2-carboxylic acid], for which the “Effect on CFTR activity” value in assay [1] (Example 14, CHO-K1 cells, FIG. 16) was “almost no effect”; in assay [1] (FRT-YFP cells, FIG. 3), “almost no effect”. Moreover, the “Effect on ANO1 activity” value in assay [2] (30 μM) is on record as “weakly inhibited”.
`Cc1ccc(C)c(N2CCN(C(=O)Cc3c(C(=O)O)[nH]c4ccc(Cl)cc34)CC2)c1` [YPI-H05, 5-chloro-3-(2-(4-(2,5-dimethylphenyl)piperazin-1-yl-)-2-oxoethyl)-1H-indole-2-carboxylic acid] returned an inhibition at 100 µM in assay [1] (FRT-YFP cells, FIG. 3) of about 50%. This compound came in with an inhibition at 30 µM in assay [2] (FIG. 3) of about 80%.
